Experimental data as given in patent US20180072997A1, “INHIBITORS OF HUMAN IMMUNODEFICIENCY VIRUS REPLICATION” (ViiV HEATHCARE UK (NO.5) LIMITED, priority 2015, published 2018).

Columns and labels:
[1] = tested on: recombinant NL4-3 virus (Renilla luciferase in nef) in MT-2 cells; test: whole plant or invertebrate; assay type: cell-based, HIV; conditions: Renilla, NL43, MT-2 cells infected for 4-5 days with recombinant NL4-3 Renilla luciferase virus; luciferase activity
Method in brief: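 MT-2 cells infected for 4-5 days with NL4-3 reporter virus (Renilla luciferase replacing part of nef, produced by transfection of 293T cells) in the presence of serial compound dilutions. Antiviral activity quantified by luciferase activity read with a live-cell substrate.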

[2] = Compound cytotoxicity, XTT-based colorimetric assay; assay type: cell-based; conditions: human, uninfected MT2 cells, day 4, XTT
Method in brief: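 Run under the antiviral-assay protocol but without virus. Viability was read on day 4 and CC50 values were derived from the readout.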

| SMILES | EC50 [1] | CC50 at 4 days [2] |
| --- | --- | --- |
| C=CCCN(C(=O)[C@H](Cc1cc(F)cc(F)c1)NS(=O)(=O)NC(=O)N[C@@H](Cc1cc(F)cc(F)c1)C(=O)N(CC=C)c1ccc(OC)cc1)c1ccc(OC)cc1 [Example 123] | 380 nM | 19.2 µM |
| COc1ccc(N(C)C(=O)[C@H](Cc2ccccc2)Nc2nc(N)nc(N[C@@H](Cc3ccccc3)C(=O)N(C)c3ccc(OC)cc3)n2)cc1 [Example 124] | 3800 nM | 31 µM |
| COc1ccc(N(CCF)C(=O)[C@H](Cc2cc(F)cc(F)c2)NC(=O)Cn2c(=O)n(CC(=O)N[C@@H](Cc3cc(F)cc(F)c3)C(=O)N(CCF)c3ccc(OC)cc3)c3ccccc32)cc1 [Example 125] | 340 nM | ≥ 100 µM |
| CN(C(=O)[C@H](Cc1cc(F)cc(F)c1)NC(=O)c1ccc(F)c(C(=O)N[C@@H](Cc2cc(F)cc(F)c2)C(=O)N(C)c2ccc3scnc3c2)c1)c1ccc2scnc2c1 [Example 126] | 10 nM | ≥ 100 µM |
| Cc1cc(C(=O)N[C@@H](Cc2cc(F)cc(F)c2)C(=O)N(C)c2ccc3scnc3c2)cc(C(=O)N[C@@H](Cc2cc(F)cc(F)c2)C(=O)N(C)c2ccc3scnc3c2)c1 [Example 127] | 10 nM | 3.8 µM |
| CN(C(=O)[C@H](Cc1cc(F)cc(F)c1)NC(=O)/C=C\C(=O)N[C@@H](Cc1cc(F)cc(F)c1)C(=O)N(C)c1ccc2scnc2c1)c1ccc2scnc2c1 [Example 128] | 80 nM | 12.6 µM |
| CN(C(=O)[C@H](Cc1cc(F)cc(F)c1)NC(=O)c1cncc(C(=O)N[C@@H](Cc2cc(F)cc(F)c2)C(=O)N(C)c2ccc3scnc3c2)c1)c1ccc2scnc2c1 [Example 129] | 10 nM | 5.3 µM |
| CN(C(=O)[C@H](Cc1ccccc1)Nc1nccc(-c2ccnc(N[C@@H](Cc3ccccc3)C(=O)N(C)c3ccc4scnc4c3)n2)n1)c1ccc2scnc2c1 [Example 135] | 90 nM | 0.5 µM |
| CN(C(=O)[C@H](Cc1ccccc1)Nc1ncc(-c2cnc(N[C@@H](Cc3ccccc3)C(=O)N(C)c3ccc4scnc4c3)nc2)cn1)c1ccc2scnc2c1 [Example 136] | 340 nM | ≥ 100 µM |
| C=CCCN(C(=O)[C@H](Cc1cc(F)cc(F)c1)NC(=O)NS(=O)(=O)N[C@@H](Cc1cc(F)cc(F)c1)C(=O)N(CC=C)c1ccc(OC)cc1)c1ccc(OC)cc1 [Example 138] | 260 nM | 12.9 µM |
| C=CCN(C(=O)[C@H](Cc1cc(F)cc(F)c1)NC(=O)c1ccc(F)c(C(=O)N[C@@H](Cc2cc(F)cc(F)c2)C(=O)N(CC=C)c2ccc(OC)cc2)c1)c1ccc(OC)cc1 [Example 139] | 40 nM | ≥ 33.3 µM |
| C=CCN(C(=O)[C@H](Cc1cc(F)cc(F)c1)NC(=O)NS(=O)(=O)N[C@@H](Cc1cc(F)cc(F)c1)C(=O)N(CC=C)c1ccc2scnc2c1)c1ccc2scnc2c1 [Example 140] | 100 nM | 32.7 µM |
| COc1ccc(N(C)C(=O)[C@H](Cc2ccccc2)Nc2ccnc(N[C@@H](Cc3ccccc3)C(=O)N(C)c3ccc(OC)cc3)n2)cc1 [Example 145] | 12000 nM | 19.1 µM |
| CN(C(=O)[C@H](Cc1cc(F)cc(F)c1)Nc1ccnc(N[C@@H](Cc2cc(F)cc(F)c2)C(=O)N(C)c2ccc3scnc3c2)n1)c1ccc2scnc2c1 [Example 146] | 2860 nM | 30.6 µM |
| CCN(C(=O)[C@H](Cc1cc(F)cc(F)c1)NC(=O)CN1c2ccccc2N(CC(=O)N[C@@H](Cc2cc(F)cc(F)c2)C(=O)N(CC)c2ccc(OC(F)F)cc2)S1(=O)=O)c1ccc(OC(F)F)cc1 [Example 147] | 90 nM | ≥ 100 µM |
| CCN(C(=O)[C@H](Cc1cc(F)cc(F)c1)NC(=O)CN1c2ccccc2N(CC(=O)N[C@@H](Cc2cc(F)cc(F)c2)C(=O)N(CC)c2ccc(NC(=O)OC)cc2)S1(=O)=O)c1ccc(NC(=O)OC)cc1 [Example 148] | 720 nM | ≥ 100 µM |
| CCN(C(=O)[C@H](Cc1cc(F)cc(F)c1)NC(=O)NS(=O)(=O)N[C@@H](Cc1cc(F)cc(F)c1)C(=O)N(CC)c1ccc(NC(=O)OC)cc1)c1ccc(NC(=O)OC)cc1 [Example 149] | 1640 nM | 79.5 µM |
| CCN(C(=O)[C@H](Cc1cc(F)cc(F)c1)NC(=O)NS(=O)(=O)N[C@@H](Cc1cc(F)cc(F)c1)C(=O)N(CC)c1ccc(OC(F)F)cc1)c1ccc(OC(F)F)cc1 [Example 150] | 10 nM | 24.6 µM |
| Cc1nc2cc(N(C)C(=O)[C@H](Cc3cc(F)cc(F)c3)NC(=O)NS(=O)(=O)N[C@@H](Cc3cc(F)cc(F)c3)C(=O)N(C)c3ccc4sc(C)nc4c3)ccc2s1 [Example 151] | 190 nM | 33.4 µM |
| CCN(C(=O)[C@H](Cc1cc(F)cc(F)c1)NC(=O)NS(=O)(=O)N[C@@H](Cc1cc(F)cc(F)c1)C(=O)N(CC)c1ccc2scnc2c1)c1ccc2scnc2c1 [Example 152] | 60 nM | 99.3 µM |
| CCN(C(=O)[C@H](Cc1cc(F)cc(F)c1)NC(=O)CN1c2ccccc2N(CC(=O)N[C@@H](Cc2cc(F)cc(F)c2)C(=O)N(CC)c2ccc3oc(=O)n(Cc4ccccc4)c3c2)S1(=O)=O)c1ccc2oc(=O)n(Cc3ccccc3)c2c1 [Example 153] | 1540 nM | 3.1 µM |
| CN(C(=O)[C@H](Cc1ccccc1)NC(=O)c1ccnc(N[C@@H](Cc2ccccc2)C(=O)N(C)c2ccc3scnc3c2)n1)c1ccc2scnc2c1 [Example 154] | 1860 nM | ≥ 100 µM |
| CCN(C(=O)[C@H](Cc1cc(F)cc(F)c1)NC(=O)CN1c2ccccc2N(CC(=O)N[C@@H](Cc2cc(F)cc(F)c2)C(=O)N(CC)c2ccc3oc(=O)n(CC)c3c2)S1(=O)=O)c1ccc2oc(=O)n(CC)c2c1 [Example 155] | 2130 nM | ≥ 33.3 µM |
| CCN(C(=O)[C@H](Cc1cc(F)cc(F)c1)NC(=O)NS(=O)(=O)N[C@@H](Cc1cc(F)cc(F)c1)C(=O)N(CC)c1ccc2oc(=O)n(CC)c2c1)c1ccc2oc(=O)n(CC)c2c1 [Example 156] | 24700 nM | ≥ 50 µM |
| COc1ccc(N(C)C(=O)[C@H](Cc2cc(F)cc(F)c2)Nc2ccnc(N[C@@H](Cc3cc(F)cc(F)c3)C(=O)N(C)c3ccc(OC)cc3)n2)cc1 [Example 158] | 9530 nM | 12.4 µM |
| COc1ccc(-n2ccnc2C(Cc2ccccc2)NC(=O)NS(=O)(=O)N[C@@H](Cc2ccccc2)c2nccn2-c2ccc(OC)cc2)cc1 (stereo partly drawn) [Example 159] | 3680 nM | 86.4 µM |
| CN(C(=O)[C@H](Cc1cc(F)cc(F)c1)NC(=O)CN1c2ccccc2N(CC(=O)N[C@@H](Cc2cc(F)cc(F)c2)C(=O)N(C)c2ccc3sncc3c2)S1(=O)=O)c1ccc2sncc2c1 [Example 160] | 20 nM | ≥ 100 µM |
| COc1ccc(-n2ccnc2[C@H](Cc2ccccc2)NC(=O)c2cccc(C(=O)N[C@@H](Cc3ccccc3)c3nccn3-c3ccc(OC)cc3)c2)cc1 [Example 161] | 2800 nM | 73.9 µM |
| CN(C(=O)[C@H](Cc1cc(F)cc(F)c1)NC(=O)NS(=O)(=O)N[C@@H](Cc1cc(F)cc(F)c1)C(=O)N(C)c1ccc2c(c1)OCCO2)c1ccc2c(c1)OCCO2 [Example 162] | 70 nM | 43.9 µM |
| C=CCN(C(=O)[C@H](Cc1cc(F)cc(F)c1)NS(=O)(=O)CS(=O)(=O)N[C@@H](Cc1cc(F)cc(F)c1)C(=O)N(CC=C)c1ccc(OC)cc1)c1ccc(OC)cc1 [Example 163] | 2560 nM | ≥ 100 µM |
